Series [1] concerns TNFα production by human peripheral blood mononuclear cells. As to the kind of experiment: PBMC test: inhibition of LPS-stimulated TNFα production. The class given is cell-based. The protocol:
The ability of compounds of this invention to inhibit TNFα production was assessed by using human peripheral blood mononuclear cells which synthesise and secrete TNFα when stimulated with lipopolysaccharide.
Peripheral blood mononuclear cells (PBMC) were isolated from heparinised (10 units/ml heparin) human blood by density centrifugation (Lymphoprep™; Nycomed). Mononuclear cells were resuspended in culture medium [RPMI 1640 medium (Gibco) supplemented with 50 units/ml penicillin, 50 μg/ml streptomycin, 2 mM glutamine and 1% heat-inactivated human AB serum (Sigma H-1513)]. Compounds were solubilised in DMSO at a concentration of 50 mM, diluted 1:100 in culture medium and subsequently serial dilutions were made in culture medium containing 1% DMSO. PBMCs (2.4×10^5 cells in 160 μl culture medium) were incubated with 20 μl of varying concentrations of test compound (triplicate cultures) or 20 μl culture medium containing 1% DMSO (control wells) for 30 minutes at 37° C. in a humidified (5% CO2/95% air) incubator (Falcon 3072; 96 well flat-bottom tissue culture plates). […] TNFα levels were determined in each sample using a human TNFα ELISA (see WO92/10190 and Current Protocols in Molecular Biology, vol 2 by Frederick M/Ausbel et al., John Wiley and Sons Inc.). […]

Series [2] deals with T1, p38α (Homo sapiens, UniProt Q16539).
T1 construct: c-myc (N); 6His (N); made in house; host or cells: E. coli (PET vectors)
T1 sequence (Q16539 whole entry): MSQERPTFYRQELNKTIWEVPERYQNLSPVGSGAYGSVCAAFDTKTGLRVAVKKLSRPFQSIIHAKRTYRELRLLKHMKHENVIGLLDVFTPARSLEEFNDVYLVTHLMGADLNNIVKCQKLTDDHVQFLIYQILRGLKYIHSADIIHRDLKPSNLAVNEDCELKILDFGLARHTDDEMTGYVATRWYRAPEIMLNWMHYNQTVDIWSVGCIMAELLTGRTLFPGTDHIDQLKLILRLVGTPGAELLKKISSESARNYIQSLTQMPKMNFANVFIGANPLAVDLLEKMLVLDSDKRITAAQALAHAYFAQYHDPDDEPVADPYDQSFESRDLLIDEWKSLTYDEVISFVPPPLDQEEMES
The experiment in a line: In vitro enzyme assay, p38 kinase inhibition. It counts as biochemical. Conditions: read-out: IC50 against p38α. The protocol: The ability of compounds of the invention to inhibit the enzyme p38 kinase was assessed. Activity of test compounds against each of the p38α and p38β isoforms of the enzyme was determined. […]
Test compounds were solubilised in DMSO and 10 μl of a 1:10 diluted sample in ‘Kinase Buffer’ was added to a well in a Microtiter plate. […] The precipitated protein was phosphorylated by p38 kinase and test compounds were assessed for their ability to inhibit this phosphorylation. The plates were filtered using a Canberra Packard Unifilter and washed with 2% TCA, dried overnight and counted on a Top Count scintillation counter.
Test compounds were tested initially at a single dose and active compounds were retested to allow IC50 values to be determined.

Series [3] relates to TNFα production by human whole blood. The experiment in a line: Human Whole Blood test: inhibition of LPS-stimulated TNFα production. The class given is cell-based. The procedure:
The ability of the compounds of this invention to inhibit TNFα production was also assessed in a human whole blood assay. Human whole blood secretes TNFα when stimulated with LPS. This property of blood forms the basis of an assay which is used as a secondary test for compounds which profile as active in the PBMC test.
Heparinised (10 units/ml) human blood was obtained from volunteers. 160 μl whole blood were added to 96 well round-bottom plates (Corning 25850). Compounds were solubilised and serially diluted in RPMI 1640 medium (Gibco) supplemented with 50 units/ml penicillin 50 μg/ml streptomycin and 2 mM glutamine, as detailed above. 20 μl of each test concentration was added to appropriate wells (triplicate cultures). 20 μl of RPMI 1640 medium supplemented with antibiotics and glutamine was added to control wells. Plates were incubated for 30 minutes at 37° C. (humidified incubator), prior to addition of 20 μl LPS (final concentration 10 μg/ml). RPMI 1640 medium was added to control wells. Six “LPS alone” and four “medium alone” controls were included on each plate. A known TNFα synthesis/secretion inhibitor was included in each test. Plates were incubated for 6 hours at 37° C. (humidified incubator). […] TNFα levels were measured by ELISA (see WO92/10190 and Current Protocols in Molecular Biology, vol 2 by Frederick M. Ausbel et al., John Wiley and Sons Inc.). […]

The structures appear in SMILES notation. Bounds are passed on as bounds.

`COc1ccc(C(=O)Nc2cc(NC(=O)c3cccc(NS(C)(=O)=O)c3)ccc2C)cc1OC` [Example 1, N-[5-(3-methanesulphonylaminobenzamido)-2-methylphenyl]-3,4-dimethoxybenzamide] came in with a melting point of over 300 °C.

`COc1ccc(C(=O)Nc2cc(NC(=O)c3ccc(OCCCCl)cc3)ccc2C)cc1OC` [Example 3, N-{5-[4-(3-chloropropoxy)benzamido]-2-methylphenyl}-3,4-dimethoxybenzamide] came in with a melting point of 186 to 187 °C.

`COc1ccc(C(=O)Nc2cc(NC(=O)c3ccc(OCCN4CCCC4)cc3)ccc2C)cc1OC` [Example 4, N-{5-[4-(2-pyrrolidin-1-ylethoxy)benzamido]-2-methylphenyl}-3,4-dimethoxybenzamide] gave a melting point of 165 to 166 °C.

The compound `COc1ccc(C(=O)Nc2cc(NC(=O)c3ccc(OCCCN4CCOCC4)cc3)ccc2C)cc1OC` [Example 5, Compound No. 3, N-{2-methyl-5-[4-(3-morpholinopropoxy)benzamido]phenyl}-3,4-dimethoxybenzamide] came in with a melting point of 148 to 149 °C.

As for `Cc1ccc(NC(=O)c2cccc(N3CCOCC3)c2)cc1NC(=O)c1cccc(OCCN2CCCC2)c1` [Example 7, Compound No. 19, N-[2-methyl-5-(3-morpholinobenzamido)phenyl]-3-(2-pyrrolidin-1-ylethoxy)benzamide], the IC50 in series [1] was about 1 µM; in series [2] it was about 0.1 µM; in series [3] it was about 6 µM.

For `COCCOc1ccc(C(=O)Nc2cc(NC(=O)c3ccc(C#N)cc3)ccc2C)cc1` [Example 8, N-[5-(4-cyanobenzamido)-2-methylphenyl]-4-(2-methoxyethoxy)benzamide], the IC50 in series [1] is about 3 µM; in series [2] it was about 0.1 µM.

The compound `COc1ccc(C(=O)Nc2cc(NC(=O)c3cccc(OCC(=O)O)c3)ccc2C)cc1OC` [Example 18, N-[5-(3-carboxymethoxybenzamido)-2-methylphenyl]-3,4-dimethoxybenzamide] showed a melting point of 206 to 207 °C.

Regarding `COc1ccc(C(=O)Nc2cc(NC(=O)c3ccc(N(C)CCCN(C)C)cc3)ccc2C)cc1OC` [Example 20, N-{5-[4-(N-(3-dimethylaminopropyl)-N-methylamino)benzamido]-2-methylphenyl}-3,4-dimethoxybenzamide], the melting point lay within 164 to 165 °C.

For `Cc1ccc(NC(=O)c2cccc(N3CCOCC3)c2)cc1NC(=O)c1cccc(OC2CCNCC2)c1` [Example 25, N-[2-methyl-5-(3-morpholinobenzamido)phenyl]-3-piperidin4-yloxybenzamide], the melting point was 162 to 166 °C.

Regarding `CCS(=O)(=O)Nc1cccc(C(=O)Nc2ccc(C)c(NC(=O)c3ccc(OC)c(OC)c3)c2)c1` [Example 26, N-{5-[3-(N-methylmethanesulphonylamino)benzamido]-2′-methylphenyl}-3,4-dimethoxybenzamide], the melting point is 168 to 169 °C.

In turn, `Cc1ccc(NC(=O)c2cccc(N(C)C)c2)cc1NC(=O)c1cccc(NS(C)(=O)=O)c1` [Example 27, N-[5-(3-dimethylaminobenzamido)-2-methylphenyl]-3-methanesulphonylaminobenzamide] registered a melting point of 239 to 240 °C.

`Cc1ccc(NC(=O)c2cccc(N(C)C)c2)cc1NC(=O)c1ccccc1NCCCN1CCOCC1` [Example 35, N-[5-(3-dimethylaminobenzamido)-2-methylphenyl]-2-(3-morpholinopropylamino)benzamide] yielded a melting point of 239 to 240 °C.

Regarding `Cc1ccc(NC(=O)c2cccc(N(C)C)c2)cc1NC(=O)c1ccc(N(C)CCCN(C)C)cc1` [Example 36, N-[5-(3-dimethylaminobenzamido)-2-methylphenyl]-4-(3-dimethylamino-N-methylpropylamino)benzamide], the melting point was 178 to 179 °C.

Regarding `CCCS(=O)(=O)Nc1cccc(C(=O)Nc2cc(NC(=O)c3cccc(N4CCOCC4)c3)ccc2C)c1` [Example 62, N-[2-methyl-5-(3-morpholinobenzamido)phenyl]-3-(N-ethylmethanesulphonylamino)benzamide], the melting point is 192 to 193 °C.

Broadly, the melting point is the temperature, or range, at which the solid turns liquid. Usually IC50 stands for the concentration that inhibits the measured activity by half.

For the origin of these results see patent US6956037B2, “Benzamide derivatives for the treatment of diseases mediated by cytokines” (AstraZeneca AB, priority 1998, dated 2005).
